The results in this text go back to the supplement of paper PMC6723410.

Assay [1] deals with GUMC-403. As to the kind of experiment: viability at highest tested concentration (max response) relative to DMSO (% of DMSO control); higher = less cytotoxic. To be noted: library / dose series: MIPE library, 11-point 1:3 dilution, 48 h. Put shortly: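 Conditionally reprogrammed GUMC-403 papilloma cells from a patient were plated at 700/well in 5 μL F + Y medium in 1536-well plates and left overnight at 37 °C. A pin tool then added 23 nL of library compounds as an 11-point 1:3 series, for 48 h. CellTiter-Glo luminescence was read on a ViewLux and scaled with vehicle wells set to 100% and empty wells to 0%. Each value gives viability at the highest tested concentration relative to vehicle control.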

Assay [2] concerns GUMC-403. As to the kind of experiment: AC50 for reduction of cell viability; higher = less potent. To be noted: library / dose series: MIPE library, 11-point 1:3 dilution; 48 h.

In assay [1] (top concentration 46.1 µM), `CC(C)C1=N[N](C\2=C1C(=O)N\C(=N2)CC3=CC=C(OCCO)C=C3)C4=C(Cl)C=CC=C4Cl` yielded a viability of 47.9. Besides, the “AC50 for reduction of cell viability” value in assay [2] stood at 0.132 µM.
Consider `ClC1=CC\2=C(NC(=O)\C(=C2N[C@@H]3CN4CCC3CC4)C5=NC6=C([NH]5)C=CC=C6)C=C1`, for which the viability in assay [1] (top concentration 46.1 µM) is 16.4. Further, in assay [2], the “AC50 for reduction of cell viability” value was 3.32 µM.
In assay [1] (top concentration 46.1 µM), `C[S+](=O)([O-])N1CCN(Cc2cc3nc(-c4cccc5[nH]ncc45)nc(N4CCOCC4)c3s2)CC1` showed a viability of 55.1. For the same compound, the “AC50 for reduction of cell viability” value in assay [2] worked out at 0.235 µM.
In assay [1] (top concentration 46.1 µM), `CC(C)C[C@H](NC(=O)CNC(=O)c1cc(Cl)ccc1Cl)B1OC(=O)CC(CC(=O)O)(C(=O)O)O1` (stereo partly specified) gave a viability of 38.8. In assay [2], the “AC50 for reduction of cell viability” value was found to be 2.35 µM.
For `C[C@H](NCc1ccc2c(c1)nc(NC(=O)c1ccc(-c3cn[nH]c3)s1)n2CCc1ccccc1)C(C)(C)C` the same measures were 8.07 and 3.72 µM.
For `C=CC(=O)Nc1cccc(Oc2nc(Nc3ccc(N4CCN(C)CC4)cc3OC)ncc2Cl)c1` the same measures were 65.2 and 0.59 µM.
For `Clc1ccc(C(c2ccc(Cl)cc2)[n+]2ccn(CC(OCc3ccc(Cl)cc3Cl)c3ccc(Cl)cc3Cl)c2)cc1` (stereo unspecified), in that order: 25.1 and 20.9 µM.
Consider `COC1=CC=C2/C3=N/CCN3\C(=N/C2=C1OC)NC(=O)C4=CC=CN=C4`, for which the viability in assay [1] (top concentration 46.1 µM) came to 64.7. The “AC50 for reduction of cell viability” value in assay [2] came to 5.9 µM.
`CCN(CC)CCNC(=O)c1c(C)[nH]c(/C=C2\C(=O)Nc3ccc(F)cc32)c1C` had a viability in assay [1] (top concentration 92.2 µM) of 5.58. The “AC50 for reduction of cell viability” value in assay [2] is 42.9 µM.
In the case of `CC(=O)N1CCN(c2ccc(OCc3nn(C)c(C)c3-c3cccc4c(CCCOc5cccc6ccccc56)c(C(=O)O)n(Cc5cccnc5)c34)cc2)CC1`, the viability in assay [1] (top concentration 46.1 µM) turned out to be 3.86. In addition, in assay [2], the “AC50 for reduction of cell viability” value was 7.43 µM.
For `CN1\N=C(N)/C2=C[N]([C@@H]3O[C@H](CO[P](O)(O)=O)[C@@H](O)[C@H]3O)C4=C2C1=NC=N4`, in that order: 57.8 and 1.48 µM.
For `CO[C@H]1/C=C/O[C@@]2(C)Oc3c(C)c(O)c4c(O)c(c(/C=N\N5CCN(C6CCCC6)CC5)c(O)c4c3C2=O)NC(=O)/C(C)=C\C=C\[C@H](C)[C@H](O)[C@@H](C)[C@@H](O)[C@@H](C)[C@H](OC(C)=O)[C@@H]1C` the same measures were 56 and 0.296 µM.
For `O=C1\C=C(/OC2=C1C=CC=C2C3=CC=CC=C3)N4CCOCC4`, in that order: 61.6 and 5.9 µM.
`O=C(Nc1cc(C(F)(F)F)cc(C(F)(F)F)c1)c1cc(Cl)ccc1O`: the viability in assay [1] (top concentration 46.1 µM) turned out to be 70. The “AC50 for reduction of cell viability” value in assay [2] stood at 1.48 µM.
For `CC[C@@H]1[C@@H](C)O[C@@](O)([C@@H](C)[C@H](O)[C@H](C)[C@H]2OC(=O)/C=C/C=C/[C@H](C)[C@@H]([C@@H](C)[C@@H](O)[C@H](C)[C@@]3(O)C[C@@H](O[C@H]4C[C@H](O)[C@H](O)[C@H](C)O4)[C@H](CC)[C@@H](C)O3)OC(=O)/C=C/C=C/[C@@H]2C)C[C@H]1O[C@H]1C[C@H](O)[C@H](O)[C@H](C)O1`, in that order: 8.03 and 26.4 µM.
For `CCN(CC)CCNC(=O)c1ccc2nc(-c3ccccc3)c(-c3ccc(CN4CCC(n5c(=O)[nH]c6ccccc65)CC4)cc3)nc2c1`, in that order: 3.89 and 10.5 µM.
For `Nc1nc(N)c2nc(-c3cccc(O)c3)c(-c3cccc(O)c3)nc2n1` the same measures were 32.4 and 5.26 µM.
Turning to `O=C1NC(=O)/C(=C/c2ccc3nccc(-c4ccncc4)c3c2)S1`, the viability in assay [1] (top concentration 46.1 µM) is 18.7. For the same compound, the “AC50 for reduction of cell viability” value in assay [2] was determined as 0.235 µM.
For `CN[C@@H]1C[C@H]2O[C@@](C)([C@@H]1OC)n1c3ccccc3c3c4c(c5c6ccccc6n2c5c31)C(=O)N[C@H]4O` the same measures were 8.86 and 1.48 µM.
For `COc1cccc2c1C(=O)c1c(O)c3c(c(O)c1C2=O)C[C@@](O)(C(=O)CO)C[C@@H]3O[C@H]1C[C@H](N)[C@H](O)[C@H](C)O1`, in that order: 34.7 and 1.87 µM.
In assay [1] (top concentration 46.1 µM), `Cc1ccc([N+](=O)[O-])cc1[S+](=O)([O-])N(C)/N=C/c1cnc2ccc(Br)cn12` gave a viability of 8.42. In addition, in assay [2], the “AC50 for reduction of cell viability” value stood at 0.0235 µM.
Compound `C[S+](=O)([O-])N1CCc2c(-c3cnc(N)nc3)nc(N3CCOCC3)nc21` registered a viability in assay [1] (top concentration 46.1 µM) of 46.2. In addition, in assay [2], the “AC50 for reduction of cell viability” value was determined as 0.332 µM.
For `Cc1cc(Nc2ncc3c(n2)N(C)C(=O)N(c2cc(NC(=O)c4cccc(C(F)(F)F)c4)ccc2C)C3)n(C)n1`, in that order: 53.5 and 0.743 µM.
